Measurements as given in ChEMBL document CHEMBL1201862, “PubChem BioAssay data set” (2004).
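These data come from cells grown in 96-well plates and exposed to compound for 48 hours at five concentrations. At the GI50, growth is halved.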 Activity calls are given as the source filed them. No stated cut-off is given here; in the data, active = GI50 up to about 1.1 µM and inactive = higher.

What was measured:
Assay in all cases: DTP human tumour cell line panel, 48 h
PC-3 = test system: PC-3
Malme-3M = test system: Malme-3M
MDA-N = test system: MDA-N
SNB-75 = test system: SNB-75
UACC-257 = test system: UACC-257
SK-MEL-5 = test system: SK-MEL-5
TK-10 = test system: TK-10
OVCAR-5 = test system: OVCAR-5
EKVX = test system: EKVX
NCI-H23 = test system: NCI-H23
MDA-MB-435 = test system: MDA-MB-435
T47D = test system: T47D
MCF7 = test system: MCF7
HOP-92 = test system: HOP-92
UACC-62 = test system: UACC-62
Hs-578T = test system: Hs-578T
RPMI-8226 = test system: RPMI-8226
A549 = test system: A549
HT-29 = test system: HT-29
U-251 = test system: U-251

Measured: GI50

CN(C)Cc1ccc(C(C)(C)C)cc1-c1cc(C(C)(C)C)ccc1CN(C)C
inactive: PC-3 27.7 µM | Malme-3M 31.3 µM | MDA-N 48.5 µM | SNB-75 88.1 µM | UACC-257 21.6 µM | SK-MEL-5 32.4 µM | TK-10 > 100 µM | OVCAR-5 > 100 µM | EKVX 39.2 µM | NCI-H23 77.4 µM | MDA-MB-435 55.6 µM | T47D 48.2 µM | MCF7 37.6 µM | HOP-92 > 100 µM | UACC-62 > 100 µM | Hs-578T > 100 µM | RPMI-8226 26.9 µM | A549 93.5 µM | HT-29 33 µM | U-251 42.7 µM

CC1CNC(c2cccc(-c3nc(-c4cccc(C5=NC(C)CN5)c4)nc(N(C)C)n3)c2)=N1 (stereo not given)
active: PC-3 0.671 µM | MCF7 0.78 µM | HT-29 0.895 µM | U-251 0.653 µM
inactive: Malme-3M 3.87 µM | MDA-N 1.52 µM | SNB-75 1.91 µM | UACC-257 3.16 µM | SK-MEL-5 2.59 µM | TK-10 2.78 µM | OVCAR-5 2.57 µM | EKVX 2.23 µM | NCI-H23 2.14 µM | MDA-MB-435 1.19 µM | T47D 2.5 µM | HOP-92 3.87 µM | UACC-62 1.82 µM | Hs-578T 2.74 µM | RPMI-8226 2.75 µM | A549 2.69 µM

O=C(CCOS(=O)(=O)CF)N1CCN(C(=O)CCOS(=O)(=O)CF)CC1
inactive: PC-3 > 100 µM | Malme-3M > 57.3 µM | MDA-N > 100 µM | SNB-75 10.1 µM | UACC-257 > 100 µM | SK-MEL-5 51.6 µM | TK-10 > 100 µM | OVCAR-5 > 100 µM | EKVX > 100 µM | NCI-H23 29.6 µM | MDA-MB-435 > 100 µM | T47D 43.6 µM | MCF7 18.6 µM | HOP-92 35.6 µM | UACC-62 16.4 µM | Hs-578T 22.2 µM | RPMI-8226 > 46.5 µM | A549 59 µM | HT-29 > 100 µM | U-251 29.8 µM

N=C(N)NS(=O)(=O)c1ccc(NCc2c3ccccc3nc3ccccc23)cc1
active: SNB-75 0.608 µM | NCI-H23 1.09 µM | MCF7 0.0566 µM | HOP-92 0.24 µM | UACC-62 1.1 µM | A549 0.338 µM | U-251 0.354 µM
inactive: PC-3 16.1 µM | Malme-3M 4.75 µM | MDA-N 71.1 µM | UACC-257 14.5 µM | SK-MEL-5 2.62 µM | TK-10 64.1 µM | OVCAR-5 33.3 µM | EKVX 10.4 µM | MDA-MB-435 32.6 µM | T47D 1.16 µM | Hs-578T 1.5 µM | RPMI-8226 2.82 µM | HT-29 33.3 µM

CCC1(C)C=Cc2c(cc(OC)c3c(=O)c4ccccc4n(C)c23)O1 (stereo not given)
inactive: PC-3 > 10 µM | Malme-3M > 10 µM | MDA-N > 10 µM | SNB-75 7.13 µM | UACC-257 > 10 µM | SK-MEL-5 > 10 µM | TK-10 > 10 µM | OVCAR-5 > 10 µM | EKVX > 10 µM | NCI-H23 > 10 µM | MDA-MB-435 > 10 µM | T47D 4.99 µM | HOP-92 > 10 µM | UACC-62 9.98 µM | Hs-578T 5.6 µM | RPMI-8226 3.83 µM | A549 3.94 µM | HT-29 7.69 µM | U-251 > 10 µM
active: MCF7 0.785 µM
